Key:
Assay in all cases: relative viability (nuclei count vs DMSO), 5 days (fraction); higher = more cells survive
[1] = compound: Cn1nnc2c(C(N)=O)ncn2c1=O [Temozolomide] + Cc1cc(Nc2cc(N3CCN(C)CC3)nc(Sc3ccc(NC(=O)C4CC4)cc3)n2)n[nH]1 [Tozasertib] (partner 0.1 µM)
Procedure, shortened: (§1)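 Medians of duplicate plates are given as relative viability. That measure is the nuclei count in treated wells divided by the count in vehicle wells. Counts were taken on 4× images of lung cancer cell lines in 1536-well plates, 5 days after pin-tool dosing the day after seeding with one drug alone or a fixed anchor-drug dose plus five library-drug doses (not always all listed) in √10 steps.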

AZD5582 + Decitabine = compound: C[C@@H](C(=O)N[C@@H](C1CCCCC1)C(=O)N2CCC[C@H]2C(=O)N[C@@H]3[C@@H](CC4=CC=CC=C34)OCC#CC#CCO[C@@H]5CC6=CC=CC=C6[C@@H]5NC(=O)[C@@H]7CCCN7C(=O)[C@H](C8CCCCC8)NC(=O)[C@H](C)NC)NC [AZD5582] + Nc1ncn([C@H]2C[C@H](O)[C@@H](CO)O2)c(=O)n1 [Decitabine] (partner 2 µM)
Procedure, shortened: as §1

[2] = compound: Cn1nnc2c(C(N)=O)ncn2c1=O [Temozolomide] + O=C(CCCCCCC(=O)Nc1ccccc1)NO [Vorinostat] (partner 1 µM)
Procedure, shortened: as §1

AZD5582 + Crizotinib = compound: C[C@@H](C(=O)N[C@@H](C1CCCCC1)C(=O)N2CCC[C@H]2C(=O)N[C@@H]3[C@@H](CC4=CC=CC=C34)OCC#CC#CCO[C@@H]5CC6=CC=CC=C6[C@@H]5NC(=O)[C@@H]7CCCN7C(=O)[C@H](C8CCCCC8)NC(=O)[C@H](C)NC)NC [AZD5582] + C[C@@H](Oc1cc(-c2cnn(C3CCNCC3)c2)cnc1N)c1c(Cl)ccc(F)c1Cl [Crizotinib] (partner 1 µM)
Procedure, shortened: as §1

Cell Line	relative viability ([1]; first compound 0.2 µM)	relative viability ([1]; first compound 0.6325 µM)	relative viability ([1]; first compound 2 µM)	relative viability ([1]; first compound 6.325 µM)	relative viability ([1]; first compound 20 µM)	relative viability (AZD5582 + Decitabine; first compound 0.001581 µM)	relative viability (AZD5582 + Decitabine; first compound 0.005 µM)	relative viability (AZD5582 + Decitabine; first compound 0.01581 µM)	relative viability (AZD5582 + Decitabine; first compound 0.05 µM)	relative viability ([2]; first compound 0.2 µM)	relative viability ([2]; first compound 0.6325 µM)	relative viability ([2]; first compound 2 µM)	relative viability ([2]; first compound 6.325 µM)	relative viability ([2]; first compound 20 µM)	relative viability (AZD5582 + Crizotinib; first compound 0.001581 µM)	relative viability (AZD5582 + Crizotinib; first compound 0.005 µM)	relative viability (AZD5582 + Crizotinib; first compound 0.01581 µM)	relative viability (AZD5582 + Crizotinib; first compound 0.05 µM)
NCI-H2405	0.716	0.722	0.791	0.72	0.776	0.772	0.861	0.687	0.721	1.25	1.08	1.05	0.99	0.995	0.785	0.957	0.804	0.9
NCI-H3122	0.257	0.482	0.47	0.356	0.46	0.476	0.384	0.42	0.224	1.11	0.988	1.17	0.998	0.96	0.264	0.305	0.298	0.247
PC-3 [JPC-3]	0.935	0.945	0.934	0.901	0.431	0.737	0.641	0.855	0.431	1.21	0.737	0.937	0.732	0.319	0.862	0.882	0.97	0.314
PC-14	0.439	0.608	0.558	0.293	0.0992	0.12	0.165	0.205	0.116	0.74	0.923	0.693	0.768	0.0952	0.787	0.835	0.909	0.742
RERF-LC-KJ	0.535	0.465	0.538	0.504	0.499	–	–	0.779	0.208	0.602	0.7	0.756	0.646	0.663	0.525	0.516	0.792	0.782
SK-LU-1	0.354	0.326	0.335	0.273	0.235	0.535	0.379	0.673	0.21	0.89	0.769	0.713	0.505	0.421	0.365	0.272	0.91	0.152
SK-MES-1	1.02	0.919	0.985	0.939	0.973	0.336	0.365	0.416	0.347	1.41	1.12	1.11	1.19	1.12	0.992	1.02	0.941	1.04
SW 1573	0.298	0.177	0.162	0.207	0.169	0.551	0.631	0.674	0.685	0.794	1.04	1.08	0.803	0.633	0.686	0.717	0.815	0.858
UMC-11	0.204	0.198	0.214	0.198	0.191	0.637	0.638	0.731	0.71	0.388	0.415	0.423	0.391	0.264	0.534	0.671	0.578	0.493

— the supplement of paper PMC10307832
